Experimental data reported in US8802694B2, “3,6-diazabicyclo[3.1.1]heptanes as neuronal nicotinic acetycholine receptor ligands” (Targacept, Inc., priority 2009, dated 2014).
Read-outs that look alike come from different tables or passages of the source.

How the values were obtained:
Human α4β2 = target: T1, Human α4β2 (Homo sapiens, UniProt P17787+P43681); assay: Competition binding to human α4β2 receptors in membranes of SH-EP1/human α4β2 cells ([3H]-nicotine); details: membrane competition binding
T1 construct: host or cells: SH-EP1

Rat α4β2 = target: T2, Rat α4β2 (Rattus norvegicus, UniProt P09483+P12390); assay: Competition binding to rat α4β2 receptors in rat cortical membranes; details: rat cortex membranes
T2 construct: Rat cortices were obtained from Analytical Biological Services; tissue Analytical Biological Services, Incorporated (ABS, Wilmington, Del.); host or cells: rat cortex (female Sprague-Dawley)
Method: Preparation of membranes from rat tissues. Rat cortices were obtained from Analytical Biological Services, Incorporated (ABS, Wilmington, Del.). Tissues were dissected from female Sprague-Dawley rats, frozen and shipped on dry ice. Tissues were stored at −20° C. until needed for membrane preparation. […] The resulting homogenate was centrifuged at 40,000 g for 20 minutes at 4° C. and the resulting pellet was resuspended in 20 volumes of ice-cold water. After 60-minute incubation at 4° C., a new pellet was collected by centrifugation at 40,000 g for 20 minutes at 4° C. The final pellet was resuspended in preparative buffer and stored at −20° C. On the day of the assay, tissue was thawed, centrifuged at 40,000 g for 20 minutes and then resuspended in PBS (Dulbecco's Phosphate Buffered Saline, Life Technologies, pH 7.4) to a final concentration of 2-3 mg protein/mL. Protein concentrations were determined using the Pierce BCA Protein Assay kit (Pierce Biotechnology, Rockford, Ill.), with bovine serum albumin as the standard.
Competition binding to receptors in membrane preparations. […] In brief, membranes were reconstituted from frozen stocks (approximately 0.2 mg protein) and incubated for 2 h on ice in […] assay buffer (PBS) in the presence of competitor compound (0.001 nM to […]) and radioligand. [^3H]-nicotine (L-(−)-[N-methyl-3H]-nicotine, 69.5 Ci/mmol, Perkin-Elmer Life Sciences) was used for human α4β2 binding studies. [^3H]-epibatidine (52 Ci/mmol, Perkin-Elmer Life Sciences) was used for binding studies at the other receptor subtypes. […] Filters were washed 3 times and the radioactivity retained was determined by liquid scintillation counting.
Binding data analysis. Binding data were expressed as percent total control binding. Replicates for each point were averaged and plotted against the log of drug concentration.

α6β3β4α5 = target: T3, α6β3β4α5 (Homo sapiens, UniProt P30926+Q15825); assay: Competition binding to α6β3β4α5 receptors in membranes of SH-EP1/α6β3β4α5 cells ([3H]-epibatidine); details: membrane competition binding
T3 construct: host or cells: SH-EP1

Row | Structure (SMILES) | Ki (Human α4β2; Human α4β2 Ki) [nM] | Ki (Rat α4β2; Rat α4β2 Ki) [nM] | Ki (α6β3β4α5; read-out: α6β3β4α5 Ki) [nM] | Ki (α6β3β4α5; α6β3β4α5 Ki) [nM] | Ki (Human α4β2; read-out: Human α4β2 Ki) [nM] | Ki (Rat α4β2; read-out: Rat α4β2 Ki) [nM]
1 | O=C(c1cnco1)N1CC2CC(C1)N2 | 28 | 0.18 | 17000 |  |  | 
2 | Cc1ncoc1C(=O)N1CC2CC(C1)N2 |  | 38 | 11000 |  |  | 
3 | O=C(C1CC1(F)F)N1CC2CC(C1)N2 (stereo not shown) | 6.1 | 8.8 |  | 510 |  | 
4 | O=C(CC1CCCC1)N1C2CNCC1C2 |  | 100 | 360 |  | 220 | 
5 | O=C(CC1CCOC1)N1C2CNCC1C2 (stereo not shown) |  |  | 1600 |  | 330 | 130
6 | O=C([C@H]1CCCO1)N1C2CNCC1C2 |  |  | 1100 |  | 390 | 
7 | O=C(CC1CC1)N1C2CNCC1C2 | 43 | 27 | 310 |  |  | 
8 | CC1(C)C(C(=O)N2CC3CC(C2)N3)C1(C)C |  |  | 480 |  | 140 | 710
9 | CC1CC1C(=O)N1CC2CC(C1)N2 (stereo not shown) | 5 | 1.8 |  | 120 |  | 
10 | O=C(CSc1ccc(Cl)c(Cl)c1)N1CC2CC(C1)N2 | 2.3 | 16 |  | 100 |  | 
11 | O=C(CSc1ccc(O)cc1)N1CC2CC(C1)N2 | 11 | 8.6 | 120 |  |  | 
12 | O=C(NCc1ccccc1)N1CC2CC(C1)N2 |  |  | 400 |  | 270 | 200
13 | O=C(NCc1ccc(Cl)cc1)N1CC2CC(C1)N2 |  | 4 | 210 |  | 110 | 
14 | O=C(NCc1ccc(Cl)cc1Cl)N1CC2CC(C1)N2 | 48 | 24 |  | 38 |  | 
15 | O=C(NCc1ccc(Cl)c(Cl)c1)N1CC2CC(C1)N2 | 90 | 71 | 120 |  |  | 
16 | CCCC(=O)N1CC2CC(C1)N2 | 12 | 4.1 |  | 290 |  | 
17 | O=C(CCC(F)(F)F)N1CC2CC(C1)N2 | 74 | 63 | 980 |  |  | 

Row | Structure (SMILES) | Ki (Human α4β2; Human α4β2 Ki) [nM] | Ki (Rat α4β2; Rat α4β2 Ki) [nM] | Ki (α6β3β4α5; read-out: α6β3β4α5 Ki) [nM] | Ki (α6β3β4α5; α6β3β4α5 Ki) [nM] | Ki (Human α4β2; read-out: Human α4β2 Ki) [nM] | Ki (Rat α4β2; read-out: Rat α4β2 Ki) [nM]
18 | C/C=C/CCC(=O)N1CC2CC(C1)N2 | 37 | 25 | 540 |  |  | 
19 | O=C(CC1CCC1)N1CC2CC(C1)N2 | 49 | 34 | 440 |  |  | 
20 | CC1(C)CC1C(=O)N1CC2CC(C1)N2 (stereo not shown) | 5.3 | 6.7 |  | 120 |  | 
21 | CCC1(CC)CC1C(=O)N1CC2CC(C1)N2 (stereo not shown) | 71 | 69 | 470 |  |  | 
22 | C[C@@H]1C(C(=O)N2CC3CC(C2)N3)[C@@H]1C (stereo partly shown) | 44 | 30 | 170 |  |  | 
23 | O=C([C@@H]1C[C@H]1c1ccccc1)N1CC2CC(C1)N2 | 4.7 | 4.4 |  | 64 |  | 
24 | O=C(C1CC12CCC2)N1CC2CC(C1)N2 (stereo not shown) | 2.6 | 1.2 |  | 50 |  | 
25 | O=C(C1CC12CCCC2)N1CC2CC(C1)N2 (stereo not shown) | 26 | 31 |  | 96 |  | 
26 | O=C(C1C2CCCCC21)N1CC2CC(C1)N2 (stereo not shown) | 78 | 30 | 280 |  |  | 
27 | CCC[C@H]1C[C@H]1C(=O)N1CC2CC(C1)N2 | 44 |  | 220 |  |  | 130
28 | CC1CC(C(=O)N2CC3CC(C2)N3)C1 (stereo not shown) | 23 | 22 | 380 |  |  | 
29 | O=C(C1CC(F)(F)C1)N1CC2CC(C1)N2 | 16 | 19 | 370 |  |  | 
30 | O=C([C@@H]1C[C@@H]2C=C[C@H]1C2)N1CC2CC(C1)N2 |  |  | 1300 |  | 160 | 210
31 | CCCC(=O)N1C2CNCC1C2 | 9.9 | 5.1 | 230 |  |  | 
32 | O=C(CCC(F)(F)F)N1C2CNCC1C2 |  | 72 | 1500 |  | 180 | 
33 | C/C=C/CCC(=O)N1C2CNCC1C2 | 53 | 15 | 400 |  |  | 
